Experimental data as given in patent publication US20240002344A1, “COMPOUNDS, COMPOSITIONS AND METHODS FOR HISTONE LYSINE DEMETHYLASE INHIBITION” (FibroGen, Inc., priority 2020, published 2024).

Tests used:
[1] = biological target: T1, recombinant human KDM5B (Homo sapiens, UniProt Q9UGL1); assay: 14CO2 capture enzymatic assay (decarboxylation of [1-14C] αKG), KDM5B; format: biochemical; conditions: 10 μM [1-14C] αKG, 90 μM non-labeled αKG, 50 μM peptide substrate, 37° C., 1 hour, final 1% DMSO
T1 sequence (Q9UGL1 374-755 limits assumed): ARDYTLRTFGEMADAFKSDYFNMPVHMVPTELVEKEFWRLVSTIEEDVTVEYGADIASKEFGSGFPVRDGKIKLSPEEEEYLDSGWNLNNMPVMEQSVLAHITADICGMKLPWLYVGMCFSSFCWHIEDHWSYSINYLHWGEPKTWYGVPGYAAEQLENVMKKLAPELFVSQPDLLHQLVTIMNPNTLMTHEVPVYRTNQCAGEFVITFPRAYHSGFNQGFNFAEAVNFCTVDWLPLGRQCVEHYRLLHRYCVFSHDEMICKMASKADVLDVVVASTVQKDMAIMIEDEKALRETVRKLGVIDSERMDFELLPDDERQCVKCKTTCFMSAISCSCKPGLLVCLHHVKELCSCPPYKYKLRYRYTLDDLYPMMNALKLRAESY
Summary of the method: (§1)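 Truncated recombinant human KDM5B (H3K4me3 peptide) or KDM4A (H3K9me3 peptide), 50 μM peptide, with 10 μM [1-14C]αKG plus 90 μM unlabeled αKG, 10 μM Fe(SO4), 2 mM ascorbate in pH 7.4 HEPES, 1 h at 37 °C, 1% DMSO. Released 14CO2 trapped on Ba(OH)2 filter; IC50 by non-linear fit.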

[2] = biological target: T2, recombinant human KDM4A (Homo sapiens, UniProt O75164); assay: 14CO2 capture enzymatic assay (decarboxylation of [1-14C] αKG), KDM4A; format: biochemical; conditions: 10 μM [1-14C] αKG, 90 μM non-labeled αKG, 50 μM peptide substrate, 37° C., 1 hour, final 1% DMSO
T2 construct: made in house
T2 sequence (O75164 1-359 limits assumed): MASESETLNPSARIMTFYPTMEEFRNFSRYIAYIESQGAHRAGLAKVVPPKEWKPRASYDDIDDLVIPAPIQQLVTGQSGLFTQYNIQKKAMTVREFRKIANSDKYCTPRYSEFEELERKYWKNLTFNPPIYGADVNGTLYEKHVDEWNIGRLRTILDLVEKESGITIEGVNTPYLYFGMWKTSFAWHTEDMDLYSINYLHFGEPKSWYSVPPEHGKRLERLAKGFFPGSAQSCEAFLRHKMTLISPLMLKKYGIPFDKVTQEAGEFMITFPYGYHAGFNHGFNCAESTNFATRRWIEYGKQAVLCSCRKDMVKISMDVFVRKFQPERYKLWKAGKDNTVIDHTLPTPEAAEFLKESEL
Summary of the method: as §1

Row | Compound | IC50 [1] | IC50 [2]
1 | N#Cc1cc(Cc2c(Cl)cc(OC(F)(F)F)cc2Cl)nc(C(=O)CCC(=O)O)c1O [Example 143, 4-[4-Cyano-6-(2,6-dichloro-4-trifluoromethoxy-benzyl)-3-hydroxy-pyridin-2-yl]-4-oxo-butyric acid] | 230 nM | > 40000 nM
2 | N#Cc1cc(Cc2c(Cl)cc(Cl)cc2Cl)nc(C(=O)CCC(=O)O)c1O [Example 144, 4-[4-Cyano-3-hydroxy-6-(2,4,6-trichloro-benzyl)-pyridin-2-yl]-4-oxo-butyric acid] | 180 nM | 28000 nM
3 | N#Cc1cc(Cc2c(Cl)cc(C(F)(F)F)cc2Cl)nc(C(=O)CCC(=O)O)c1O [Example 145, 4-[4-Cyano-6-(2,6-dichloro-4-trifluoromethyl-benzyl)-3-hydroxy-pyridin-2-yl]-4-oxo-butyric acid] | 360 nM | > 40000 nM
4 | N#Cc1cc(Cc2ccccc2Cc2ccccc2)nc(C(=O)CCC(=O)O)c1O [Example 146, 4-[6-(2-Benzyl-benzyl)-4-cyano-3-hydroxy-pyridin-2-yl]-4-oxo-butyric acid] | 140 nM | 39000 nM
5 | COc1cc(Cl)c(Cc2cc(C#N)c(O)c(C(=O)CCC(=O)O)n2)c(Cl)c1 [Example 147, 4-[4-Cyano-6-(2,6-dichloro-4-methoxy-benzyl)-3-hydroxy-pyridin-2-yl]-4-oxo-butyric acid] | 160 nM | > 40000 nM
6 | Cc1cccc(F)c1Cc1cc(C#N)c(O)c(C(=O)CCC(=O)O)n1 [Example 148, 4-[4-Cyano-6-(2-fluoro-6-methyl-benzyl)-3-hydroxy-pyridin-2-yl]-4-oxo-butyric acid] | 300 nM | 4300 nM
7 | N#Cc1cc(Cc2c(Cl)ccc(F)c2Cl)nc(C(=O)CCC(=O)O)c1O [Example 149, 4-[4-Cyano-6-(2,6-dichloro-3-fluoro-benzyl)-3-hydroxy-pyridin-2-yl]-4-oxo-butyric acid] | 70 nM | 3700 nM
8 | COc1cccc(F)c1Cc1cc(C#N)c(O)c(C(=O)CCC(=O)O)n1 [Example 150, 4-[4-Cyano-6-(2-fluoro-6-methoxy-benzyl)-3-hydroxy-pyridin-2-yl]-4-oxo-butyric acid] | 280 nM | 27000 nM
9 | Cc1cc(F)cc(C)c1Cc1cc(C#N)c(O)c(C(=O)CCC(=O)O)n1 [Example 151, 4-[4-Cyano-6-(4-fluoro-2,6-dimethyl-benzyl)-3-hydroxy-pyridin-2-yl]-4-oxo-butyric acid] | 500 nM | 1500 nM
10 | Cc1cc(Cl)cc(C)c1Cc1cc(C#N)c(O)c(C(=O)CCC(=O)O)n1 [Example 152, 4-[4-Cyano-6-(4-chloro-2,6-dimethyl-benzyl)-3-hydroxy-pyridin-2-yl]-4-oxo-butyric acid] | 450 nM | 9700 nM
11 | Cc1cc(C#N)cc(C)c1Cc1cc(C#N)c(O)c(C(=O)CCC(=O)O)n1 [Example 153, 4-[4-Cyano-6-(4-cyano-2,6-dimethyl-benzyl)-3-hydroxy-pyridin-2-yl]-4-oxo-butyric acid] | 320 nM | 17000 nM
12 | Cc1noc(C)c1Cc1cc(C#N)c(O)c(C(=O)CCC(=O)O)n1 [Example 154, 4-[4-Cyano-6-(3,5-dimethyl-isoxazol-4-ylmethyl)-3-hydroxy-pyridin-2-yl]-4-oxo-butyric acid] | 260 nM | 1400 nM

The remaining lines, values ahead:

Row | IC50 [1] | IC50 [2] | Compound
13 | 180 nM | 34000 nM | Cc1ccc(Cl)c(Cc2cc(C#N)c(O)c(C(=O)CCC(=O)O)n2)c1Cl [Example 155, 4-[4-Cyano-6-(2,6-dichloro-3-methyl-benzyl)-3-hydroxy-pyridin-2-yl]-4-oxo-butyric acid]
14 | 70 nM | 11000 nM | N#Cc1cc(Cc2c(Cl)ccc(Cl)c2Cl)nc(C(=O)CCC(=O)O)c1O [Example 156, 4-[4-Cyano-3-hydroxy-6-(2,3,6-trichloro-benzyl)-pyridin-2-yl]-4-oxo-butyric acid]
15 | 1400 nM | > 40000 nM | N#Cc1nc(-c2ccccc2)cc(C(=O)CCC(=O)O)c1O [Example 157, 4-(2-Cyano-3-hydroxy-6-phenyl-pyridin-4-yl)-4-oxo-butyric acid]
16 | 80 nM | > 40000 nM | N#Cc1cc(NC(=O)c2ccccc2)nc(C(=O)CCC(=O)O)c1O [Example 158, 4-(6-Benzoylamino-4-cyano-3-hydroxy-pyridin-2-yl)-4-oxo-butyric acid]
17 | 990 nM | > 40000 nM | CN(C(=O)c1ccccc1)c1cc(C#N)c(O)c(C(=O)CCC(=O)O)n1 [Example 159, 4-[6-(Benzoyl-N-methyl-amino)-4-cyano-3-hydroxy-pyridin-2-yl]-4-oxo-butyric acid]
18 | 2000 nM | > 40000 nM | N#Cc1nc(Cc2ccccc2)cc(C(=O)CCC(=O)O)c1O [Example 160, 4-(6-Benzyl-2-cyano-3-hydroxy-pyridin-4-yl)-4-oxo-butyric acid]
